“Also recorded” adds a separate entry of the source.
Experiments:
ALPK1 [1] = biological target: T1, ALPK1 (Homo sapiens, UniProt Q96QP1); assay: IL-8 secretion by HEK293 cells (IL-8 ELISA) as indication of ALPK1 activation; type: cell-based; conditions: HEK293 cells treated 4 hours, FIG. 6, Table 2A
T1 construct: endogenous in cells; host or cells: HEK293 (A1); HEK293 stably expressing an NF-kB-alkaline phosphatase reporter (A2)
Experimental: HEK293 cells were treated with H1b-ADP derivatives (A1, A2, A3, and A4) or with Compound 28 for 4 hours followed by analysis of IL-8 secretion using an IL-8 enzyme linked immunoassay (ELISA). IL-8 secretion is an indication of ALPK1 activation. The EC50 of each compound was determined using GraphPad Prism.

ALPK1 [2] = biological target: T1, ALPK1; assay: NF-kB promoter driven alkaline phosphatase reporter in HEK293 cells (pNPP assay); type: cell-based; conditions: HEK293-NFkB-AP reporter cells treated 7 hours
Experimental: NF-kB activation was assayed using HEK293 cells stably expressing an NF-kB reporter construct comprising an NF-kB promoter driving expression of alkaline phosphatase (AP). In this system, activation of NF-kB promoter activity drives the expression of AP which is detected using a chromogenic substrate, para-nitrophenyl phosphate (pNPP).
To assess the ALPK1 agonist activity of test compounds, the HEK293 cells were seeded in 96-well plates and allowed to attach overnight. Cells were then exposed to graded concentrations of compounds A1, A2, A3, A4, A18, A26, A27, A28, and A30. Compound 28 was included as a reference. Following treatment, cell culture supernatants were collected and analyzed for alkaline phosphatase activity using the pNPP assay. The results are shown in FIGS. 7A-7B and Table 2B-C below. The EC50 for each compound was determined using GraphPad Prism.

HBV = assay: HBV-AAV mouse model: HBV DNA qPCR, serum HBsAg and HBeAg ELISA; type: in vivo; conditions: 0.1 mg/kg intraperitoneal on days 28 and 31, serum at day 35, versus PBS control
Experimental: Administration of Compound 28 (0.1 mg/kg, twice weekly “BIW”) led to downregulation of HBV DNA expression and a decrease in serum levels of HBsAg, and HBeAg in the HBV-AAV mouse model. At day 1, male C57BL/6 mice were intravenously injected with AAV8-1.3HBV (1×10^11 v/g). After days 28 and 31, each mouse was then intraperitoneally injected with 0.1 mg/kg compound 28 or PBS control. At day 35, mouse serum was collected for HBV DNA qPCR analysis, HBsAg and HBeAg serum analysis by ELISA.

HBsAg, adw = assay: Immunization of mice with HBsAg, adw with or without compound; specific total IgG serum titers by ELISA; type: in vivo, mouse
Experimental: Eight-week-old C57BL/6J mice (females) were intradermally (I.D.) immunized at day 0 with HBsAg, adw (1 mg/dose), or HBsAg, adw at 1 mg/dose combined with compound 28 (1 nmol/dose). Mice were boosted with a second immunization at day 14 and the sera collected at day 35. HBsAg, adw-specific total IgG serum titers (OD450) were determined by ELISA. Anti-HBsAg, adw IgG titers were more than 2× higher when HBsAg, adw was combined with 1 nmol/dose of compound 28 than when HBsAg, adw was injected alone (FIG. 3).

[3] = tested on: eosinophils, dendritic cells, neutrophils; assay: Porcine pancreas elastase (PPE) induced immune cells in bronchoalveolar lavage, flow cytometry; type: in vivo, mouse; conditions: 30 μg/dose PPE, BAL day 2
Experimental: Eight-week-old male C57BL/6 mice were grouped (N=8/group) and were intraperitoneally (I.P.) injected with compound 28 at 0, 4, or 20 nmol/dose on days −1, 0, and 1. In addition, mice were intratracheally (I.Tr.) administrated with 0 or 30 μg/dose of porcine pancreas elastase (PPE) dissolved in 50 μL saline on day 0. Mice were sacrificed on day 2 and the immune cells were collected by bronchoalveolar lavage (BAL). Cells were then subjected to fluorophore-conjugated antibody staining and analyzed by flow cytometry. Data were processed with a FlowJo […] (Treestar). Immune cells were gated as singlets>live cells>CD11c^highSiglecF^lowMHCII^high (dendritic cells), CD11c^lowCD11b^highLy-6G^high (neutrophils), and CD11c^lowCD11b^highLy-6G^lowSiglecF^high (eosinophils).

ALPK1 [4] = biological target: T2, ALPK1 (Mus musculus, UniProt Q9CXB8); assay: Serum RANTES (CCL5) levels after subcutaneous injection as measure of ALPK1 activation in vivo; conditions: 10 nmole subcutaneous, serum at 24 hours or 48 hours
T2 construct: C57/B6 mice (n=3 mice/group) were injected subcutaneously; endogenous in cells; host or cells: C57/B6 mice, whole animal
T2 sequence (Q9CXB8 1-1231): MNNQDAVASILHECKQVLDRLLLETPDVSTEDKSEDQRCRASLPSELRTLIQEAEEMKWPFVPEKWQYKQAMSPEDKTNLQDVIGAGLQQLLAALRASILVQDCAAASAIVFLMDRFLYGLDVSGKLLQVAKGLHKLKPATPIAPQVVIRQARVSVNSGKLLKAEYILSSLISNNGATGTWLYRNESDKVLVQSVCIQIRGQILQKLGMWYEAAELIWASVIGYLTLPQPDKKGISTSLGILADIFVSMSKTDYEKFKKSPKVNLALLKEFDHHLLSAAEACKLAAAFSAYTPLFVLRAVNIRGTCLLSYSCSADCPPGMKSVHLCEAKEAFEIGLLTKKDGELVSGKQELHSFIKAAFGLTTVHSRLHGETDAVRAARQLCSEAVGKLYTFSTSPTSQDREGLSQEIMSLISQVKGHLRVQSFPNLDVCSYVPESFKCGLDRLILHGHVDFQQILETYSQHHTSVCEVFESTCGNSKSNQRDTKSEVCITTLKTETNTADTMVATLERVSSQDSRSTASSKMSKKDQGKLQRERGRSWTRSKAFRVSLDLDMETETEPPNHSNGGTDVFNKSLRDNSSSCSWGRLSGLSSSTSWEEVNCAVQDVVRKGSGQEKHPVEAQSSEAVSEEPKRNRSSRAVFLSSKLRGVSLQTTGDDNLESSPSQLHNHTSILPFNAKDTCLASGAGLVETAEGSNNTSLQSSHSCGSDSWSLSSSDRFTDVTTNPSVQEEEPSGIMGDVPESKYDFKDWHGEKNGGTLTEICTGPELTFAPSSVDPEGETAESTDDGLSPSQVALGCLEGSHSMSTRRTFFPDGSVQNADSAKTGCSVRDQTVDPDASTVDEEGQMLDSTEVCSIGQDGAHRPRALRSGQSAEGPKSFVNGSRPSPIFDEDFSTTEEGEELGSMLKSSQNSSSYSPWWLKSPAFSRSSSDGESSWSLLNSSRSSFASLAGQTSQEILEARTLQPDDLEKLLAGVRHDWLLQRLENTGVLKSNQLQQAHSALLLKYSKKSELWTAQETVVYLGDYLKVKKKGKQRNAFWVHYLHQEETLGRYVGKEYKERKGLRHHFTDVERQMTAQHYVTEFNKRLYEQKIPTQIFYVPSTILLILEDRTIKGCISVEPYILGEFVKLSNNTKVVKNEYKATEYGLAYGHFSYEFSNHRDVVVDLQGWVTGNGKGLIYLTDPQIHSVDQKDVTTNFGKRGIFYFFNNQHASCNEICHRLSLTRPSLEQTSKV
Experimental: The ability of Compounds 15 and 28 to stimulate ALPK1 activation in vivo was tested by monitoring serum levels of the chemokine RANTES (CCL5), which is elevated upon activation of ALPK1. Briefly, C57/B6 mice (n=3 mice/group) were injected subcutaneously with PBS (negative control) or 10 nmole of Compound 15 or Compound 28. Serum was collected at 24 hours or 48 hours post injection.

[5] = 4 nmol/dose intraperitoneal days -1, 0, 1
[6] = 4 nmol/dose intraperitoneal days -1, 0, 1, listed as compound 28
[7] = 20 nmol/dose intraperitoneal days -1, 0, 1
[8] = 20 nmol/dose intraperitoneal days -1, 0, 1, listed as compound 28

T1 sequence (Q96QP1 whole entry): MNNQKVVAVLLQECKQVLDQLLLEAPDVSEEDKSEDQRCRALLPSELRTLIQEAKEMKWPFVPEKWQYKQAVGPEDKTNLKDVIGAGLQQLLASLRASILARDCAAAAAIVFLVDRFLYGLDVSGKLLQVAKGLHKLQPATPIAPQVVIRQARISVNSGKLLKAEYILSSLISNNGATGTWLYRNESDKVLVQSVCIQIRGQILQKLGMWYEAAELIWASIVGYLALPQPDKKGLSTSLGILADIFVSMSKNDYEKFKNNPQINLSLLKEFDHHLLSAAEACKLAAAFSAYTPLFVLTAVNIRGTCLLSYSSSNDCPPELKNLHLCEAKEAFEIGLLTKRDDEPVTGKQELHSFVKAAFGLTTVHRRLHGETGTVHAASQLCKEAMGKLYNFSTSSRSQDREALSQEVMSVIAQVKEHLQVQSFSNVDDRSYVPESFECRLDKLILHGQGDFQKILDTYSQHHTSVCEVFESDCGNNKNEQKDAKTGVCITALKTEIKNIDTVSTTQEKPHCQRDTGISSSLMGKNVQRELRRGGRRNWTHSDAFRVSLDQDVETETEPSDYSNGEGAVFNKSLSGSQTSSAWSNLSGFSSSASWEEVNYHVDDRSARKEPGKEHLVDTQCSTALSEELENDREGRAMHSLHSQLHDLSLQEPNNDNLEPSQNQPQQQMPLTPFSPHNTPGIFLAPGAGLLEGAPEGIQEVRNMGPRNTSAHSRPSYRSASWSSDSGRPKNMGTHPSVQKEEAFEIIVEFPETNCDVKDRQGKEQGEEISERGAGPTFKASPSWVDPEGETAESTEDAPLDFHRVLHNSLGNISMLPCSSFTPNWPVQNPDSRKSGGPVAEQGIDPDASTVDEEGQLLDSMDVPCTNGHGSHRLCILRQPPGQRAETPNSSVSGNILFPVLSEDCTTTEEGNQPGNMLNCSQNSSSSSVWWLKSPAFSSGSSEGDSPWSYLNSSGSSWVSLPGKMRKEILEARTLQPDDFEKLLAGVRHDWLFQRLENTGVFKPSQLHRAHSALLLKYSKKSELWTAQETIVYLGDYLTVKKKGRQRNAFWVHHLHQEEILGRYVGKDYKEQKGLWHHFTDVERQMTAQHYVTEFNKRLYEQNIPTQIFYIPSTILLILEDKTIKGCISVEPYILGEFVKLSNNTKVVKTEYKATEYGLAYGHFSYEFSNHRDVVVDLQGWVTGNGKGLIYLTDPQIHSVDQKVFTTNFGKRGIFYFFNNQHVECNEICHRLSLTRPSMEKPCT

CC(=O)OC[C@H](F)C1O[C@@H](OP(=O)(O)OP(O)(=S)OC[C@H]2O[C@@H](n3cnc4c(N)ncnc43)C(O)C2O)C(OC(C)=O)C(OC(C)=O)[C@@H]1OC(C)=O (stereo partly drawn) [Compound 28]
EC50 (ALPK1 [1]): 45 nM | EC50 (ALPK1 [2]; FIG. 7A, Table 2B): 45 nM | EC50 (ALPK1 [2]; FIG. 7B, Table 2C): 67 nM | HBV DNA expression (HBV): marked decrease; also recorded: down-regulation | serum levels of HBeAg (HBV): marked decrease; also recorded: lower levels | serum levels of HBsAg (HBV): marked decrease; also recorded: lower levels | IgG response against HBsAg, adw (in words) (HBsAg, adw; 1 nmol with HBsAg, adw versus HBsAg, adw alone): increased IgG response | Anti-HBsAg, adw IgG titers, HBsAg, adw combined with compound relative to HBsAg, adw alone (HBsAg, adw; 1 nmol/dose intradermal, days 0 and 14, sera day 35): more than 2 × | production of dendritic cells after PPE administration [3, 5]: decrease | production of eosinophils after PPE administration [3, 5]: decrease | production of neutrophils after PPE administration [3, 5]: decrease | production of dendritic cells after PPE administration [3, 6]: significantly suppressed | production of eosinophils after PPE administration [3, 6]: significantly suppressed | production of neutrophils after PPE administration [3, 6]: only at the 20 nmol/dose level | production of dendritic cells after PPE administration [3, 7]: decrease | production of eosinophils after PPE administration [3, 7]: decrease | production of neutrophils after PPE administration [3, 7]: decrease | production of dendritic cells after PPE administration [3, 8]: significantly suppressed | production of eosinophils after PPE administration [3, 8]: significantly suppressed | production of neutrophils after PPE administration [3, 8]: suppressed | duration of immune activation (serum RANTES), compared to Compound 15 (ALPK1 [4]): longer duration of immune activation

Source: patent US20220177510A1, “DERIVATIVES OF GYLCERO-MANNO-HEPTOSE ADP FOR USE IN MODULATING IMMUNE RESPONSE” (priority 2019, published 2022)
